Results: PMC4821887, “Identification of chemicals that mimic transcriptional changes associated with autism, brain aging and neurodegeneration” (Nature Communications, 2016)
Counter-ions that a name gives are not always drawn. Like-named read-outs stand apart in the source and are kept apart here.

Tested on: mouse cortical neuron cultures

Compound | % Dead cells (vehicle subtracted) (mouse, 24 h, 10 µM) | % Dead cells (vehicle subtracted) | other results
c1ccc(Nc2ccccc2)cc1 [Diphenylamine] | 2.557% |  | 
CCOP(=S)(OCC)SCCSCC [Disulfoton] |  | 2.557% | 
CN(C)C(=O)Nc1ccc(Cl)c(Cl)c1 [Diuron] |  | -0.632% | 
CCCN(CCC)C(=O)SCC [EPTC] |  | 3.437% | 
O=S1OCC2C(CO1)C1(Cl)C(Cl)=C(Cl)C2(Cl)C1(Cl)Cl (stereo not drawn) [Endosulfan] |  | -0.8816% | 
CC(C)[C@H](C(=O)O[C@H](C#N)c1cccc(Oc2ccccc2)c1)c1ccc(Cl)cc1 [Esfenvalerate] |  | 4.898% | 
C=C(C)CN(CC)c1c([N+](=O)[O-])cc(C(F)(F)F)cc1[N+](=O)[O-] [Ethalfluralin] | 1.146% |  | 
O=P(O)(O)CCCl [Ethephon] | -0.1299% |  | 
CCOC1Oc2ccc(OS(C)(=O)=O)cc2C1(C)C (stereo not drawn) [Ethofumesate] |  | -0.3872% | 
S=C1NCCN1 [Ethylenethiourea (2-Imidazolidinethione)] |  | -0.5482% | 
CCOc1cc(C(C)(C)C)ccc1C1COC(c2c(F)cccc2F)=N1 (stereo not drawn) [Etoxazole] |  | -1.186% | 
CCOP(=O)(NC(C)C)Oc1ccc(SC)c(C)c1 (stereo not drawn) [Fenamiphos] |  | 5.708% | 
OC(c1ccc(Cl)cc1)(c1cncnc1)c1ccccc1Cl (stereo not drawn) [Fenarimol] |  | -1.829% | 
CC1(C(=O)Nc2ccc(O)c(Cl)c2Cl)CCCCC1 [Fenhexamid] | -0.6431% |  | 
COP(=S)(OC)Oc1ccc([N+](=O)[O-])c(C)c1 [Fenitrothion] |  | -1.338% | 
CCOC(=O)C(C)Oc1ccc(Oc2nc3ccc(Cl)cc3o2)cc1 (stereo not drawn) [Fenoxaprop-ethyl] | 9.924% |  | 
CC1(C)C(C(=O)OC(C#N)c2cccc(Oc3ccccc3)c2)C1(C)C (stereo not drawn) [Fenpropathrin (Danitol)] |  | -1.601% | 
COP(=S)(OC)Oc1ccc(SC)c(C)c1 [Fenthion] |  | -0.5799% | 
CCCCOC(=O)C(C)Oc1ccc(Oc2ccc(C(F)(F)F)cn2)cc1 (stereo not drawn) [Fluazifop-butyl] | 7.788% |  | % Dead cells (vehicle subtracted) (mouse, 24 h, 0.01 µM): 0.215%; % Dead cells (vehicle subtracted) (mouse, 24 h, 0.1 µM): -0.165%; % Dead cells (vehicle subtracted) (mouse, 24 h, 1 µM): 23.9839%
N#Cc1c[nH]cc1-c1cccc2c1OC(F)(F)O2 [Fludioxonil] |  | -2.856% | 
CCOC(=O)COc1cc(-n2ncc(C(F)(F)F)c(C)c2=O)c(F)cc1Cl [Flufenpyr-ethyl] |  | -1.575% | 

Compound | % Dead cells (vehicle subtracted) (mouse, 24 h, 10 µM) | % Dead cells (vehicle subtracted) | other results
CCN(Cc1c(F)cccc1Cl)c1c([N+](=O)[O-])cc(C(F)(F)F)cc1[N+](=O)[O-] [Flumetralin] |  | 1.368% | 
Cc1ccn2nc(S(=O)(=O)Nc3c(F)cccc3F)nc2n1 [Flumetsulam] | 0.4495% |  | 
CCCCCOC(=O)COc1cc(N2C(=O)C3=C(CCCC3)C2=O)c(F)cc1Cl [Flumiclorac-pentyl] | -0.6581% |  | 
C#CCN1C(=O)COc2cc(F)c(N3C(=O)C4=C(CCCC4)C3=O)cc21 [Flumioxazin] |  | 7.054% | 
CN(C)C(=O)Nc1cccc(C(F)(F)F)c1 [Fluometuron] | 0.2278% |  | 
CCCCCCC(C)OC(=O)COc1nc(F)c(Cl)c(N)c1Cl (stereo not drawn) [Fluroxypyr-meptyl] |  | -1.2099% | 
Nc1c(Cl)c(F)nc(OCC(=O)O)c1Cl [Fluroxypyr] | -1.905% |  | 
C[Si](Cn1cncn1)(c1ccc(F)cc1)c1ccc(F)cc1 [Flusilazole] | -0.05737% |  | 
COC(=O)CSc1cc(/N=c2\sc(=O)n3n2CCCC3)c(F)cc1Cl [Fluthiacet-methyl] | -0.383% |  | 
CC(C)Oc1cccc(NC(=O)c2ccccc2C(F)(F)F)c1 [Flutolanil] |  | 9.589% | 
O=C1c2ccccc2C(=O)N1SC(Cl)(Cl)Cl [Folpet] | -1.248% |  | 
O=C(Nc1ccccc1)Nc1ccnc(Cl)c1 [Forchlorfenuron] |  | 0.6006% | 
CNC(=O)Oc1cccc(N=CN(C)C)c1 [Formetanate hydrochloride] |  | 1.887% | 
CCOP(=O)(SC(C)CC)N1CCSC1=O (stereo not drawn) [Fosthiazate] |  | -0.4742% | 
CCCCC(O)(Cn1cncn1)c1ccc(Cl)cc1Cl (stereo not drawn) [Hexaconazole] | -2.068% |  | 
CN(C)c1nc(=O)n(C2CCCCC2)c(=O)n1C [Hexazinone] | -2.629% |  | 
C[C@@H]1[C@@H](c2ccc(Cl)cc2)SC(=O)N1C(=O)NC1CCCCC1 [Hexythiazox] |  | 0.5871% | 
CCC(C)OC(=O)N1CCCCC1CCO (stereo not drawn) [Icaridin] |  | 2.044% | 
C=CCOC(Cn1ccnc1)c1ccc(Cl)cc1Cl (stereo not drawn) [Imazalil] |  | 0.2633% | 
COCc1cnc(C2=NC(C)(C(C)C)C(=O)N2)c(C(=O)O)c1 (stereo not drawn) [Imazamox] |  | -0.1553% | 
CC(C)C1(C)N=C(c2ncccc2C(=O)O)NC1=O (stereo not drawn) [Imazapyr] | 1.122% |  | 

Compound | % Dead cells (vehicle subtracted) (mouse, 24 h, 10 µM) | % Dead cells (vehicle subtracted) | other results
CC(C)C1(C)N=C(c2nc3ccccc3cc2C(=O)O)NC1=O (stereo not drawn) [Imazaquin] |  | -2.73% | 
CCc1cnc(C2=NC(C)(C(C)C)C(=O)N2)c(C(=O)O)c1 (stereo not drawn) [Imazethapyr] | 4.704% |  | 
O=[N+]([O-])NC1=NCCN1Cc1ccc(Cl)nc1 [Imidacloprid] | -3.0763% |  | 
COC(=O)N(C(=O)N1CO[C@@]2(C(=O)OC)Cc3cc(Cl)ccc3C2=N1)c1ccc(OC(F)(F)F)cc1 [Indoxacarb] | 0.6208% |  | 
COC(=O)c1ccc(I)cc1S(=O)(=O)[N-]C(=O)Nc1nc(C)nc(OC)n1.[Na+] [Iodosulfuron-methyl-sodium] |  | -4.352% | 
CC(C)NC(=O)N1CC(=O)N(c2cc(Cl)cc(Cl)c2)C1=O [Iprodione] | 8.376% |  | 
CCOP(=S)(OCC)Oc1nc(Cl)n(C(C)C)n1 [Isazofos] |  | -3.842% | 
CCC(C)(CC)c1cc(NC(=O)c2c(OC)cccc2OC)on1 [Isoxaben] | -1.274% |  | 
CS(=O)(=O)c1cc(C(F)(F)F)ccc1C(=O)c1cnoc1C1CC1 [Isoxaflutole] | 2.416% |  | 
CCOC(=O)C(C)OC(=O)c1cc(Oc2ccc(C(F)(F)F)cc2Cl)ccc1[N+](=O)[O-] (stereo not drawn) [Lactofen] | -1.539% |  | 
Cl[C@H]1[C@H](Cl)[C@@H](Cl)[C@@H](Cl)[C@H](Cl)[C@H]1Cl [Lindane] |  | 3.537% | 
CON(C)C(=O)Nc1ccc(Cl)c(Cl)c1 [Linuron] |  | -0.9348% | 
Cc1cc(Cl)ccc1OCC(=O)O [MCPA (Agroxone)] |  | 9.261% | 
CCOC(=O)CC(SP(=O)(OC)OC)C(=O)OCC (stereo not drawn) [Malaoxon] |  | -0.008689% | 
CCOC(=O)CC(SP(=S)(OC)OC)C(=O)OCC (stereo not drawn) [Malathion] |  | -1.492% | 
O=c1ccc(=O)[nH][nH]1 [Maleic hydrazide] |  | 7.215% | 
S=C([S-])NCCNC(=S)[S-].[Mn+2] [Maneb] |  | 6.097% | 
COC(=O)c1ccc(CNS(C)(=O)=O)cc1S(=O)(=O)NC(=O)Nc1nc(OC)cc(OC)n1 [Mesosulfuron methyl] |  | -0.4756% | 
CS(=O)(=O)c1ccc(C(=O)C2C(=O)CCCC2=O)c([N+](=O)[O-])c1 [Mesotrione] |  | 0.1871% | 
COCC(=O)N(c1c(C)cccc1C)C(C)C(=O)OC (stereo not drawn) [Metalaxyl] |  | 0.5361% | 
CNC(=S)[S-].O.O.[Na+] [Metam-sodium hydrate] |  | -1.491% | 

Compound | % Dead cells (vehicle subtracted) (mouse, 24 h, 10 µM) | % Dead cells (vehicle subtracted) | other results
COP(N)(=O)SC (stereo not drawn) [Methamidophos] |  | -1.5388% | 
Cc1ccc(C(=O)c2ccccc2)cc1 [Methanone (4-Methylbenzophenone)] |  | 2.416% | 
COc1nn(CSP(=S)(OC)OC)c(=O)s1 [Methidathion] |  | 0.1761% | 
COc1ccc(C(c2ccc(OC)cc2)C(Cl)(Cl)Cl)cc1 [Methoxychlor] |  | -0.6222% | 
COc1cccc(C(=O)NN(C(=O)c2cc(C)cc(C)c2)C(C)(C)C)c1C [Methoxyfenozide] |  | 0.2717% | 
COCCO [Methyl cellosolve] |  | 2.2057% | 
COC(=O)c1ccccc1C(=O)O [Methyl hydrogen phthalate] |  | 1.938% | 
CCc1cccc(C)c1N(C(=O)CCl)C(C)COC (stereo not drawn) [Metolachlor] |  | -3.586% | 
CSc1nnc(C(C)(C)C)c(=O)n1N [Metribuzin] |  | -0.1172% | 
COc1nc(C)nc(NC(=O)NS(=O)(=O)c2ccccc2C(=O)O)n1 [Metsulfuron (Ally)] |  | 1.078% | 
CCSC(=O)N1CCCCCC1 [Molinate] |  | 7.609% | 
CCCCC(C#N)(Cn1cncn1)c1ccc(Cl)cc1 (stereo not drawn) [Myclobutanil] |  | -1.6229% | 
COP(=O)(OC)OC(Br)C(Cl)(Cl)Br (stereo not drawn) [Naled] |  | -0.709% | 
CCN(CC)C(=O)C(C)Oc1cccc2ccccc12 (stereo not drawn) [Napropamide] | -2.444% |  | 
Clc1cccc(C(Cl)(Cl)Cl)n1 [Nitrapyrin] | 0.473% |  | 
CNc1cnn(-c2cccc(C(F)(F)F)c2)c(=O)c1Cl [Norflurazon] |  | -0.1097% | 
O=C(NC(=O)c1c(F)cccc1F)Nc1ccc(OC(F)(F)C(F)OC(F)(F)F)c(Cl)c1 (stereo not drawn) [Novaluron] |  | -1.142% | 
CC(C)Oc1cc(-n2nc(C(C)(C)C)oc2=O)c(Cl)cc1Cl [Oxadiazon] | 5.6039% |  | 
CNC(=O)O/N=C(\SC)C(=O)N(C)C [Oxamyl] |  | -2.835% | 
Cc1cc(C)nc(NC(=O)NS(=O)(=O)c2ccccc2C(=O)OC2COC2)n1 [Oxasulfuron (benzoic acid)] |  | -0.4775% | 
CCOc1cc(Oc2ccc(C(F)(F)F)cc2Cl)ccc1[N+](=O)[O-] [Oxyfluorfen] |  | -3.765% | 
